According to patent publication US6613304B2, “Radiometal complexes of 2-pyrrolylthiones and their use as radiopharmaceuticals for imaging and therapy” (University of British Columbia, priority 2000, dated 2003):
“Also recorded” adds a separate entry of the source. Values belong to the compound of their own block, whether it stands above or below them.

Columns and labels:
[1] = Stability towards oxidation; format: physicochemical; conditions: for stability towards oxidation: in solid state and in solution
[2] = cited from earlier work; for clearance relative to OIH: % of that of OIH
[3] = cited from earlier work
[4] = Renal imaging: scintigraphic biodistribution of Tc-99m complexes in rats; format: in vivo, male Sprague and Dawley rats; conditions: for scintigraphic image of the kidneys: one hour post injection, FIG. 5; for accumulation in the cortex: 1.5 min post injection, very fast linear accumulation
Method: A group of 3 male Sprague and Dawley rats were anaesthetised by intra-muscluar administration of a mixture of Ketamine Xylazine (1 ml/Kg). A 26 guage Butterfly was introduced into the lateral tail vein and filled with heparinised physiological saline. The animals were injected with the indicated radiopharmaceutical, in the minutes following the beginning of the acquisition.
Dose activities were measured in an Accucal 2001 dose calibrator Nuclear Pharmacy Inc. (Albuquerque, N. Mex., U.S.A). Scvintigraphic mages were recorded with a Starcam 4000i XRT Gamma camera General Electric (Saint Albans, UK) equipped with a parallel, medium energy, high resolution collimator. Image analysis was performed on a Genie PNR model nuclear medicine dedicated computer General Electric (Saint Albans, UK).
The camera was set to record a series of 32 images at 1 min intervals each, the animals were injected successively starting from animal A after the camera was started. All injections were finished within the first one and a half minute. Following each injection the catheter was flushed with 0.5 ml of physiological saline. Following this first acquisition a second dynamic acquisition was recorded at a rate of one image every 10 minutes. The animals woke up 90 min after injection at which time the study was terminated.
For analysis, the areas of interest were traced around the organs of interest (right and left kidneys for the first dynamic study; and heart, left kidney and bladder at image 60 min. post-injection on the second study) and the whole body of the rats. The result were expressed as counts per seconds or as percent of the whole body activity at a given time, and are presented in FIGS. 5-9.

[5] = healthy subjects; cited from earlier work

Compound: COc1ccc(C(=S)c2ccc[nH]2)cc1OC [3,4-dimethoxyphenyl-2-pyrrolylthione, 3,4-Dimethoxyphenyl-2-pyrrolylthione]
stability at room temperature ([1]; atmospheric oxygen): unstable at room temperature

Compound: Nc1ccc(C(=O)NCC(=O)O)cc1 [PAH, p-aminohippurate]
extracted from the renal arterial plasma in a single pass through the renal parenchyma ([2]; in vivo): ~90%

Compound: O=C(O)CNC(=O)c1ccc(NC(=O)CN(CC(=O)O)CC(=O)O)cc1 [PAHIDA, p-[(biscarboxymethylaminomethyl)carbamino]hippuric acid]
clearance relative to OIH [2]: less than 50%

Compound: O=C([O-])CN=C([O-])CN=C([O-])CN=C([O-])C[S-].[O-2].[Tc+4] [Tc-99m-MAG3, ^99mTc-mercaptoacetyltriglycine]
clearance relative to OIH [2]: 50-60%
injected dose found in the kidneys ([2]; a few minutes post injection): 1-2%
plasma protein binding [3]: very high

Compound: Bis(3,4-dimethoxyphenyl-2-pyrrolylthionato) [99g Tc]oxotechnetium [compound 8]
stability towards oxidation [1]: stable towards oxidation

Compound: Tc-99m-dimercaptosuccinic acid [DMSA, reference compound]
activity in the calyx area ([4]; 1 hour post-injection): significant activity in the calyx area
blood clearance (heart area used as a measure of blood activity) ([4]; 1 hour post-injection): more rapidly cleared
overall kidney uptake ([4]; 1 hour post-injection, left kidney only): highest activity
scintigraphic image of the kidneys [4]: kidneys are well visualised
plasma protein binding [3]: almost completely bound to the proteins
steady level of renal uptake, of the activity administered [5]: ~30%
time after injection until which renal activity increases [5]: 6 to 8 h

Continued, in another order:

stability towards oxidation [1]: stable towards oxidation
Compound: Bis(2,2′-dipyrrolylthionato) ^99g Tc]oxotechnetium [compound 6]

stability towards oxidation [1]: stable towards oxidation
Compound: Bis(p-methoxyphenyl-2-pyrrolylthionato) [^99g Tc]oxotechnetium [compound 7]

accumulation in the cortex [4]: 20%
excretion rate as evaluated by measuring the activity found in the bladder ([4]; 1 hour post-injection): best excretion rate
detected radioactivity in the kidneys reaching a plateau ([4]; as compared to DMSA, FIGS. 6-8): reach a plateau more rapidly
accumulation in the cortex at plateau ([4]; plateau at about 35 min to 1 hour post injection): 22%
Compound: ^99mTcO-disulfo-di-2-pyrrolylthionate [compound 9]
scintigraphic image of the kidneys ([4]; listed as TcSL-11): better resolved the kidneys; also recorded: kidneys are well visualised

accumulation in the cortex [4]: 20%
excretion rate as evaluated by measuring the activity found in the bladder ([4]; 1 hour post-injection): best excretion rate
Compound: ^99mTcO-tetrasulfo-di-2-pyrrolylthionate [compound 10]
